Measurements reported in patent US20040266805A1, “Inflammation modulatory compound” (priority 2001, published 2004).
Several values for one entry are separate records, joined by “and”; a condition that tells them apart may be missing. Equal entries are not always repeated.

How the values were obtained:
[1] = tested on: rat Fas in splenocytes and thymocytes; assay: Fas expression by antibody staining and flow cytometry; assay type: cell-based; details: basal or ConA activated splenocytes and thymocytes, cultured 6 h
Procedure: Splenocytes and thymocytes, whether basal or ConA activated, were cultured for 6h in the presence of EM-1, EM-2 or morphine (concentration ranges as above) and were then stained with an antibody specific for rat Fas (Transduction Laboratories, Lexington, Ky., USA) and analysed by flow cytometry.

[2] = tested on: Splenocytes and thymocytes; assay: Apoptosis by Annexin-V staining and flow cytometry; assay type: cell-based, rat; details: for Effect on apoptosis in cells following any of the culture periods: culture 6, 24, 48 or 72 h; for Effect on ConA-induced apoptosis in thymocytes: morphine 10^−8 to 10^−18 mol/l; for Effect on apoptosis in basal non-activated splenocytes and thymocytes: pre-incubation 1 h, basal apoptosis 4-8%
Procedure: Splenocytes and thymocytes obtained from adult male Wistar rats were cultured as previously described (10). Cells were incubated with EM-1, EM-2 or morphine at various concentrations for 1 h and were then activated with either Concanavalin A (ConA, 5 μg/ml, Sigma UK) or lipopolysaccharide (LPS, 25 μg/ml, Sigma, UK) and cultured for 6, 24, 48 or 72 h. After culture, cells were stained with Annexin-V-Fluos (Roche, Mannheim, Germany) and analysed by flow cytometry (Becton Dickinson, UK). Apoptosis in basal non-activated splenocytes and thymocytes was 4-8%, and pre-incubation with EM-1, EM-2 or morphine had no effect on this. ConA at 1 or 5 μg/ml induced 10-15 and 20-30% apoptosis respectively in rat splenocytes, values which were not altered by pre-incubation with EM-2 at concentrations of 10^−8 to 10^−18 mol/l. […] No effect of morphine, EM-1 or EM-2 was observed on apoptosis in cells following any of the culture periods.

[3] = tested on: Adjuvant arthritis (AA) in adult male Lewis rats; assay: Intraperitoneal treatment of existing inflammation with endomorphin in adjuvant arthritis rats; assay type: in vivo, rat
Procedure: (§1) Adjuvant arthritis (AA) was induced in adult male Wistar rats by a single intradermal injection (0.1 ml) of a suspension of ground, heat-killed M. butyricum in paraffin oil (10 mg/ml) into the tail base (9). Rats were despatched 14 days following injection and spleens, thymuses and hind paws were collected on dry ice and stored at −80° C. Spleens, thymuses and synovial tissue from the paws were acid-extracted and the extracts were measured for the presence of EM-1 and EM-2 by RIAs (8). EM-1 contents in the spleen (p<0.05) and thymus (p<0.075) were elevated compared to tissues from non-AA controls (FIG. 4). […] Neither EM-1 or EM-2 were detectable in extracts of synovial tissues from control non-AA rats (FIG. 5).
Adjuvant arthritis (AA) was induced in adult male Lewis rats as above. Saline vehicle or 1 μmol of endomorphin in saline was given as an intraperitoneal (ip) injection on days 11, 12 and 13 after adjuvant injection, and after the onset of inflammation, to assess the modulation effect of the endomorphin.

[4] = tested on: arthritic male Wistar rats; assay: Intraperitoneal administration of EM-1 prior to onset of inflammation in arthritic rats; assay type: in vivo, rat; set-up: Mean Paw Volume: unit not given beside the values; details: for Mean Paw Volume: n=7
Procedure: (§2) Adjuvant arthritis (AA) was induced in adult male Wistar rats using the same protocol as described in Example 2 with saline vehicle or endomorphin 1 in saline being injected on days 9, 10, 11, 12 and 13 after adjuvant injection and prior to the onset of inflammation.
The protocol of Example 3 above was followed using intraperitoneal injection of 0.1 and 1.0 μmol Endomorphin-1 or vehicle in arthritic male Wistar rats prior to the onset of inflammation.
EM-1 or vehicle was administered on days 9, 10, 11, 12 and 13.

[5] = tested on: Adjuvant arthritis (AA) in adult male Wistar rats; assay: Intraplantar treatment with endomorphin 1 prior to onset of inflammation in adjuvant arthritis rats; assay type: in vivo, rat; details: for Mean Paw Volume: days 9-13, day 14, vehicle 2.924
Procedure: as §1, §2

CN1CC[C@]23c4c5ccc(O)c4O[C@H]2[C@@H](O)C=C[C@H]3[C@H]1C5 [morphine, reference compound]
Alteration in expression of Fas [1]: No alteration | Effect on apoptosis in cells following any of the culture periods [2]: No effect | Effect on ConA-induced apoptosis in thymocytes [2]: Neither EM-1, EM-2 nor morphine (concentration range of morphine 10^−8 to 10^−18 mol/l) had any effect | Effect on apoptosis in basal non-activated splenocytes and thymocytes [2]: had no effect

endomorphin-2 [EM-2]
Alteration in expression of Fas [1]: No alteration | Effect on ConA-induced apoptosis in rat splenocytes ([2]; ConA 1 or 5 μg/ml, pre-incubation at 10^−8 to 10^−18 mol/l): not altered | Effect on LPS-induced apoptosis ([2]; LPS 5 and 25 μg/ml, 10-12% apoptosis): did not alter | Effect on apoptosis in cells following any of the culture periods [2]: No effect | Effect on ConA-induced apoptosis in thymocytes [2]: Neither EM-1, EM-2 nor morphine (concentration range of morphine 10^−8 to 10^−18 mol/l) had any effect | Effect on apoptosis in basal non-activated splenocytes and thymocytes [2]: had no effect

endomorphin-1 [EM-1]
Alteration in expression of Fas [1]: No alteration | Effect on existing inflammation ([3]; dose of 1 μmol ip): reduce existing inflammation | Paw Volume ([3]; individual rats, 1 μmol ip on days 11, 12 and 13 after adjuvant, after onset of inflammation, day 14, listed as Endomorphin (EM-1)): 3.15 ml and 3.04 ml and 2.57 ml (2×) and 2.41 ml and 2.81 ml and 2.35 ml and 2.61 ml | Paw Volume, mean ([3]; n=8, SEM=0.10, 1 μmol ip on days 11, 12 and 13, day 14, vehicle mean 2.96): 2.69 mL | Mean Paw Volume ([4]; 0.1 μmol ip group, Day 0 (before treatment on days 9-13)): 1.613 | Mean Paw Volume ([4]; 0.1 μmol ip on days 9-13, Day 14, vehicle 2.927): 2.494 | Mean Paw Volume ([4]; 1.0 μmol ip group, Day 0 (before treatment on days 9-13)): 1.723 | Mean Paw Volume ([4]; 1.0 μmol ip on days 9-13, Day 14, vehicle 2.927): 2.349 | Reduction in inflammation ([4]; 1 μmol ip, prophylactically): 20% | Effect on apoptosis in cells following any of the culture periods [2]: No effect | Effect on ConA-induced apoptosis in thymocytes [2]: Neither EM-1, EM-2 nor morphine (concentration range of morphine 10^−8 to 10^−18 mol/l) had any effect | Effect on apoptosis in basal non-activated splenocytes and thymocytes [2]: had no effect | Mean Paw Volume ([5]; 10 pmol intraplantar, n=14): 2.779 mL | Mean Paw Volume ([5]; 100 pmol intraplantar, n=14): 2.381 mL | Mean Paw Volume ([5]; 1 nmol intraplantar, n=12): 2.638 mL | Mean Paw Volume ([5]; 10 nmol intraplantar, n=14): 2.260 mL | Mean Paw Volume ([5]; 100 fmol intraplantar, n=14): 2.450 mL | Reduction of inflammation (decrease in paw volume compared to the vehicle group) ([5]; intraplantar injection, 100 fmols): ≤ 16%
